Several values for one entry are separate records, joined by “and”; a condition that tells them apart may be missing. Equal values may be shown once. Toxic doses and inconclusive results are not listed.
Test system: P388 leukemia ip, CD2F1 mice, survival T/C
Assay: NCI In Vivo Anticancer Drug Screen. Data for tumor model P388 Leukemia (intraperitoneal) in CD2F1 (CDF1) mice
Settings: endpoint: median survival time, higher = longer survival
In short: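 Mice carrying the transplanted tumor received test compound or vehicle. Survival was recorded in each group, and the value is the treated-group measurement divided by that of the vehicle-treated control group.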

[1] = dose: 12.5 mg/kg/injection, schedule: Q01DX009 (ip), vehicle: saline
[2] = dose: 25.0 mg/kg/injection, schedule: Q01DX009 (ip), vehicle: saline
[3] = dose: 50.0 mg/kg/injection, schedule: Q01DX009 (ip), vehicle: saline with Tween-80
[4] = dose: 50.0 mg/kg/injection, schedule: Q01DX005 (ip), vehicle: saline with Tween-80
[5] = dose: 100.0 mg/kg/injection, schedule: Q01DX005 (ip), vehicle: saline with Tween-80
[6] = dose: 200.0 mg/kg/injection, schedule: Q01DX005 (ip), vehicle: saline with Tween-80
[7] = dose: 50.0 mg/kg/injection, schedule: Q01DX005 (ip), vehicle: Klucel (hydroxypropylcellulose) (HPC)
[8] = dose: 100.0 mg/kg/injection, schedule: Q01DX005 (ip), vehicle: Klucel (hydroxypropylcellulose) (HPC)
[9] = dose: 200.0 mg/kg/injection, schedule: Q01DX005 (ip), vehicle: Klucel (hydroxypropylcellulose) (HPC)
[10] = dose: 50.0 mg/kg/injection, schedule: Q01DX005 (ip), vehicle: saline
[11] = dose: 100.0 mg/kg/injection, schedule: Q01DX005 (ip), vehicle: saline
[12] = dose: 200.0 mg/kg/injection, schedule: Q01DX005 (ip), vehicle: saline
[13] = dose: 60.0 mg/kg/injection, schedule: Q01DX005 (ip), vehicle: saline with Tween-80
[14] = dose: 120.0 mg/kg/injection, schedule: Q01DX005 (ip), vehicle: saline with Tween-80
[15] = dose: 240.0 mg/kg/injection, schedule: Q01DX005 (ip), vehicle: saline with Tween-80
[16] = dose: 50.0 mg/kg/injection, schedule: Q01DX009 (ip), vehicle: saline
[17] = dose: 100.0 mg/kg/injection, schedule: Q01DX009 (ip), vehicle: saline
[18] = dose: 50.0 mg/kg/injection, schedule: Q04DX003 (ip), vehicle: saline with Tween-80

## CO/C1=C\C(C)=C\C(C)C(O)C(C)C/C(C)=C/C=C/C(OC)C(C(C)C(O)C(C)C2(O)CC(O)C(C)C(C(C)C)O2)OC1=O (configuration not stated)
dose: 1.25 mg/kg/injection, schedule: Q01DX005 (ip), vehicle: other
  T/C: 104 % of control
dose: 2.5 mg/kg/injection, schedule: Q01DX005 (ip), vehicle: other
  T/C: 104 % of control
dose: 5.0 mg/kg/injection, schedule: Q01DX005 (ip), vehicle: other
  T/C: 113 % of control

## O=C1CS/C(=N\C(=O)Nc2cccc(C(F)(F)F)c2)N1
[1]
  T/C: 103 % of control
[2]
  T/C: 94 % of control
[3]
  T/C: 87 % of control

## CC(=O)OC1CC2C(=S)Nc3cc4c(cc3C(=O)N2C1)OCO4 (configuration not stated)
[4]
  T/C: 92 % of control
[5]
  T/C: 91 % of control
[6]
  T/C: 89 % of control

## Cc1cc(=O)oc2c1cc(OCC(=O)OCCN1CCCCC1)c1occ(C)c12
[4]
  T/C: 99 % of control
[5]
  T/C: 92 % of control
[6]
  T/C: 93 % of control

## Oc1ccc(/C=C/c2cc(O)cc3c2C(c2cc(O)cc(O)c2)C(c2ccc(O)c(O)c2)O3)cc1 (configuration not stated)
dose: 7.5 mg/kg/injection, schedule: Q01DX001 (ip), vehicle: Klucel + Tween-80
  T/C: 94 % of control
dose: 15.0 mg/kg/injection, schedule: Q01DX001 (ip), vehicle: Klucel + Tween-80
  T/C: 94 % of control
dose: 30.0 mg/kg/injection, schedule: Q01DX001 (ip), vehicle: Klucel + Tween-80
  T/C: 103 % of control

## CSC1=Nc2ccccc2SC(c2ccccc2)C1c1ccccc1 (configuration not stated)
[7]
  T/C: 99 % of control
[8]
  T/C: 95 % of control
[9]
  T/C: 96 % of control

## CC(O)C(=O)NCCO (configuration not stated)
[10]
  T/C: 99 % of control
[11]
  T/C: 93 % of control
[12]
  T/C: 100 % of control

## CCOc1ccc(N2C(=O)C(=O)C(C#N)(c3nc4ccccc4o3)C(=O)C2=O)cc1
[13]
  T/C: 98 % of control
[14]
  T/C: 104 % of control
[15]
  T/C: 105 % of control

## Oc1cc(O)c2c(c1)OC(c1ccc(O)c(O)c1)C(O)C2O (configuration not stated)
dose: 50.0 mg/kg/injection, schedule: Q01DX005 (ip), vehicle: saline + Tween-80 + alcohol
  T/C: 98 % of control
dose: 100.0 mg/kg/injection, schedule: Q01DX005 (ip), vehicle: saline + Tween-80 + alcohol
  T/C: 98 % of control
dose: 200.0 mg/kg/injection, schedule: Q01DX005 (ip), vehicle: saline + Tween-80 + alcohol
  T/C: 92 % of control

## CC1OC(O)C(O)C(O)C1O (configuration not stated)
[7]
  T/C: 101 % of control
[8]
  T/C: 93 % of control
[9]
  T/C: 104 % of control

## CCOC(=O)/C=C(\C)Nc1cccc2c(N/C(C)=C/C(=O)OCC)cccc12
[4]
  T/C: 105 % of control
[5]
  T/C: 100 % of control
[6]
  T/C: 98 % of control

## COc1cc(C(Nc2ncccn2)c2cc3c(cc2OC(C)=O)OCO3)cc(OC)c1OC (configuration not stated)
[13]
  T/C: 98 % of control
[14]
  T/C: 98 % of control
[15]
  T/C: 95 % of control

## CCCCC(NC(=O)CCl)C(=O)O (configuration not stated)
[16]
  T/C: 98 % of control
[17]
  T/C: 95 % of control
dose: 200.0 mg/kg/injection, schedule: Q01DX009 (ip), vehicle: saline
  T/C: 98 % of control

## CCOC(=O)C1N=C(OCC)C(C)N=C1OCC (configuration not stated)
dose: 60.0 mg/kg/injection, schedule: Q01DX005 (ip), vehicle: saline
  T/C: 101 % of control
dose: 120.0 mg/kg/injection, schedule: Q01DX005 (ip), vehicle: saline
  T/C: 102 % of control
dose: 240.0 mg/kg/injection, schedule: Q01DX005 (ip), vehicle: saline
  T/C: 100 % of control

## O=C(O)CS(=O)(=O)CC(=O)O
[16]
  T/C: 95 % of control

## C=CC(C)NC(=S)NNC(=S)NC (configuration not stated)
[7]
  T/C: 101 % of control
[8]
  T/C: 100 % of control
[9]
  T/C: 101 % of control

## CSc1nc(=S)c2[nH]c(C)nc2[nH]1
dose: 6.25 mg/kg/injection, schedule: Q04DX003 (ip), vehicle: saline
  T/C: 96 % of control
dose: 12.5 mg/kg/injection, schedule: Q04DX003 (ip), vehicle: saline
  T/C: 96 % of control
dose: 25.0 mg/kg/injection, schedule: Q04DX003 (ip), vehicle: saline
  T/C: 100 % of control
dose: 50.0 mg/kg/injection, schedule: Q04DX003 (ip), vehicle: saline
  T/C: 100 % of control

## c1ccc(-c2nnc(-c3ccccc3)nn2)cc1
[18]
  T/C: 100 % of control
dose: 100.0 mg/kg/injection, schedule: Q04DX003 (ip), vehicle: saline with Tween-80
  T/C: 100 % of control
dose: 200.0 mg/kg/injection, schedule: Q04DX003 (ip), vehicle: saline with Tween-80
  T/C: 97 % of control
dose: 400.0 mg/kg/injection, schedule: Q04DX003 (ip), vehicle: saline with Tween-80
  T/C: 93 % of control

## CCOC(=O)NOP(=O)(N1CC1)N1CC1
dose: 12.5 mg/kg/injection, schedule: Q01DX001 (ip), vehicle: saline + alcohol
  T/C: 109 % of control and 124 % of control
dose: 25.0 mg/kg/injection, schedule: Q01DX001 (ip), vehicle: saline + alcohol
  T/C: 111 % of control
dose: 100.0 mg/kg/injection, schedule: Q01DX001 (ip), vehicle: saline + alcohol
  T/C: 238 % of control

## NC(=O)N=Nc1c(F)c(F)c(F)c(F)c1F
dose: 6.25 mg/kg/injection, schedule: Q01DX005 (ip), vehicle: saline with Tween-80
  T/C: 103 % of control
dose: 12.5 mg/kg/injection, schedule: Q01DX005 (ip), vehicle: saline with Tween-80
  T/C: 106 % of control
dose: 25.0 mg/kg/injection, schedule: Q01DX005 (ip), vehicle: saline with Tween-80
  T/C: 116 % of control
[4]
  T/C: 116 % of control
[5]
  T/C: 113 % of control

## CNC(=O)c1ccc(OC)cc1C1(O)c2ccccc2CCc2ccccc21
[7]
  T/C: 92 % of control
[8]
  T/C: 92 % of control
[9]
  T/C: 89 % of control

## CCCCCCCCCCCCC1OCN2CCCCC12 (configuration not stated)
[10]
  T/C: 106 % of control
[11]
  T/C: 100 % of control
[12]
  T/C: 113 % of control

## Cc1ccc(N=NN(C)C)cc1
dose: 12.5 mg/kg/injection, schedule: Q01DX009 (ip), vehicle: saline with Tween-80
  T/C: 110 % of control
dose: 12.5 mg/kg/injection, schedule: Q04DX003 (ip), vehicle: saline with Tween-80
  T/C: 104 % of control
dose: 25.0 mg/kg/injection, schedule: Q01DX009 (ip), vehicle: saline with Tween-80
  T/C: 115 % of control
dose: 25.0 mg/kg/injection, schedule: Q04DX003 (ip), vehicle: saline with Tween-80
  T/C: 100 % of control
dose: 33.0 mg/kg/injection, schedule: Q01DX009 (ip), vehicle: saline with Tween-80
  T/C: 118 % of control
[3]
  T/C: 122 % of control
[18]
  T/C: 109 % of control

## Cc1cc[n+](C2=C(Nc3cc(C)cc(C)c3)C(=O)c3ccccc3C2=O)cc1
[4]
  T/C: 111 % of control
[5]
  T/C: 119 % of control
[6]
  T/C: 90 % of control

## O=C1C=CC(=O)C(N(CCO)CCO)=C1
[1]
  T/C: 99 % of control
dose: 12.5 mg/kg/injection, schedule: Q01DX009 (ip), vehicle: suspension in saline
  T/C: 100 % of control
[2]
  T/C: 94 % of control
dose: 25.0 mg/kg/injection, schedule: Q01DX009 (ip), vehicle: suspension in saline
  T/C: 103 % of control
[16]
  T/C: 95 % of control
dose: 50.0 mg/kg/injection, schedule: Q01DX009 (ip), vehicle: suspension in saline
  T/C: 113 % of control
[17]
  T/C: 95 % of control
dose: 100.0 mg/kg/injection, schedule: Q01DX009 (ip), vehicle: suspension in saline
  T/C: 109 % of control and 111 % of control

## O=C(Nc1ccc(-c2ccc(NC(=O)C34CC5CC(CC(C5)C3)C4)cc2)cc1)C12CC3CC(CC(C3)C1)C2
dose: 25.0 mg/kg/injection, schedule: Q01DX005 (ip), vehicle: Klucel (hydroxypropylcellulose) (HPC)
  T/C: 98 % of control and 100 % of control
[7]
  T/C: 101 % of control
[8]
  T/C: 89 % of control and 92 % of control
[9]
  T/C: 97 % of control

## COc1cc2c(C)c[n+]3cc4cc5c(OC)c(OC)ccc5cc4cc3c2cc1OC (tested in a mixture with another compound)
dose: 3.13 mg/kg/injection, schedule: Q04DX003 (ip), vehicle: distilled water + Tween-80
  T/C: 117 % of control
dose: 6.25 mg/kg/injection, schedule: Q04DX003 (ip), vehicle: distilled water + Tween-80
  T/C: 117 % of control
dose: 12.5 mg/kg/injection, schedule: Q04DX003 (ip), vehicle: distilled water + Tween-80
  T/C: 111 % of control
dose: 25.0 mg/kg/injection, schedule: Q04DX003 (ip), vehicle: distilled water + Tween-80
  T/C: 99 % of control

## Cc1c(NC(=O)Nc2ccc(F)cc2[N+](=O)[O-])c(=O)n(-c2ccccc2)n1C
[3]
  T/C: 109 % of control
dose: 100.0 mg/kg/injection, schedule: Q01DX009 (ip), vehicle: saline with Tween-80
  T/C: 112 % of control
dose: 200.0 mg/kg/injection, schedule: Q01DX009 (ip), vehicle: saline with Tween-80
  T/C: 97 % of control
